Reference: the NIST ThermoML archive (doi:10.1016/j.tca.2019.178318)
± gives the expanded uncertainty stated by the source. One block for each compound: values may come before it.

Conditions: Liquid, Ebulliometric method (Recirculating still)

Structure (SMILES): Cc1ccc(C(C)C)cc1 [1-(1-methylethyl)-4-methylbenzene]
- vapor or sublimation pressure (449.7 K): 101.33 ± 4.1 kPa

Structure (SMILES): C=C1C2CCC(C2)C1(C)C (stereo unspecified) [2,2-dimethyl-3-methylenebicyclo[2.2.1]heptane]
- vapor or sublimation pressure (432.73 K): 101.33 ± 4.1 kPa
- vapor or sublimation pressure (432.74 K): 101.33 ± 4.1 kPa
- vapor or sublimation pressure (432.76 K): 101.33 ± 4.1 kPa
- vapor or sublimation pressure (432.8 K): 101.33 ± 4.1 kPa

Structure (SMILES): CC1=CCC2CC1C2(C)C (stereo unspecified) [2-pinene]
- vapor or sublimation pressure (428.64 K): 101.33 ± 4.1 kPa
- vapor or sublimation pressure (428.65 K): 101.33 ± 4.1 kPa

Continued, values first:

- vapor or sublimation pressure (526.4 K): 101.33 ± 4.1 kPa
- vapor or sublimation pressure (526.47 K): 101.33 ± 4.1 kPa
- vapor or sublimation pressure (526.53 K): 101.33 ± 4.1 kPa
Structure (SMILES): C=C1CC/C=C(\C)CC[C@@H]2[C@@H]1CC2(C)C

- vapor or sublimation pressure (442.63 K): 101.33 ± 4.1 kPa
Structure (SMILES): CC1=CC[C@@H]2[C@H](C1)C2(C)C [(+)-3-carene]
